The COVID Moonshot data (paper PMC11187573), “Identification of SARS-CoV-2 Mpro inhibitors through deep reinforcement learning for de novo drug design and computational chemistry approaches” (RSC Medicinal Chemistry, 2024)

Columns and labels:
[1] = biological target: SARS-CoV-2 Main Protease (SARS-CoV-2) (UniProt P0DTD1)
[2] = biological target: SARS-CoV-2 Main Protease (SARS-CoV-2) (UniProt P0DTD1); remark: listed apart in the source

Structure (SMILES)	inhibition ([1]; 20.0 µM) [%]	inhibition ([1]; 50.0 µM) [%]	relative solubility at 20 uM	relative solubility at 100 uM	inhibition ([2]; 50.0 µM) [%]	inhibition ([2]; 20.0 µM) [%]	IC50 [1] [µM]
CC(NC(=O)c1ccccc1OC1CCCCC1)c1cnccn1 (configuration not stated)	0	0	1	1	11.2	–	–
COc1ccc2c(c1)C(C(=O)Nc1cncnc1C)CCC2 (configuration not stated)	–	2.78	1	1	-24.1	6.97	–
Nc1ncc(S(=O)(=O)NCc2cccc(Cl)c2)cn1	–	6.76	1	0.97	-6.16	5.4	–
C=CC(=O)N(c1ccc(C(C)(C)C)cc1)C(C(=O)NC(C)(C)C)c1cncc(Cl)c1 (configuration not stated)	0	13.5	0.99	0.86	19.6	34.6	–
O=C(CCl)N1CCN(Cc2cc(Cl)cc(Cl)c2)CC1	100	100	1	1	69.1	76.9	0.475
C[C@H](NC(=O)[C@@H](C)c1ccc(F)c(F)c1)c1cccc(F)c1 (stereo in doubt)	0	0	1	0.79	-31.4	–	–
C=CC(=O)N(c1ccc(C(C)(C)C)cc1)C(C(=O)NCCSC)c1cccnc1 (configuration not stated)	56	63.9	1	0.99	68.9	38.5	65.4
Cc1[nH]c2ccccc2c1/C=N/N(C)C(=O)c1ccc2c(c1)OCO2	–	-6.66	0.78	0.77	-13.4	2.2	–
C=CC(=O)N1CCN(Cc2cccc3ccccc23)CC1	0	–	1	0.99	3.35	-4.32	–
N#Cc1cccc(CN2CCN(C(=O)CCl)CC2)c1	64.3	–	1.01	0.99	85.2	53.4	12.2
O=C(CNc1c(-c2ccccc2)nc2ccccn12)N/N=C/c1cccc2ccccc12	–	7.53	0.5	0.5	17.8	13.8	–
O=C(Cc1cccc(Cl)c1)Nn1cnnc1	–	0	1	1	-21.6	-9.88	–
CN(C(=O)Cc1noc2ccccc12)c1ccc(NC(=O)OC(C)(C)C)cc1	0	–	0.98	0.7	-11.9	-14.5	–
O=C(NCc1ccno1)c1ccccc1OC1CCCCC1	0	–	1	1	5.82	4.09	–
C=CC(=O)N(c1ccc(C(C)(C)C)cc1)C(C(=O)Nc1c(C)cccc1CC)c1cccnc1 (configuration not stated)	0	0	0.98	0.69	-3.74	–	–
O=C(Nc1nnc(-c2ccccn2)o1)C1CCN(S(=O)(=O)c2ccc(F)cc2)CC1	–	0	0.95	0.96	-71	3.87	–
O=C(NCc1cccnn1)NC(Cc1ccccc1)c1cccs1 (configuration not stated)	0	0	1	1	13.9	–	–
COc1cccc2c1OCC(NC(=O)c1cc(=O)[nH]c3ccc(F)cc13)C2 (configuration not stated)	–	11	0.96	0.81	19	2.25	–
Cc1ccncc1NC(=O)CN(C)S(=O)(=O)c1cccc2cccnc12	0	-0.449	0.99	1	17.3	43.4	–
